# Laboratory results from patent publication US20040087597A1, “Preventives and remedies for complications of diabetes” (priority 2000, published 2004).
# Columns and labels:
# [1] = tested on: aortic smooth muscle cells of rats; assay: Secretion of osteopontin protein into conditioned medium from aortic smooth muscle cells of rats (Western blotting); assay type: cell-based, rat; conditions: normal glucose; pitavastatin calcium 0.03 and 0.3 μM, atorvastatin 0.3 and 3 μM; 48 hours; FIG. 1
# Protocol: The effect of pitavastatin calcium and atorvastatin on the secretion of osteopontin protein into the conditioned culture medium from aortic smooth muscle cells of rats cultured under the normal glucose concentration were measured according to the method described below.
# At first, aortic smooth muscle cells of rats (5 to 10 passage culture) were seeded in a 6-well culture plate and the confluent cultures were attained by culturing in low glucose (1000 mg/L) Dulbecco's modified Eagle's medium (DMEM) with 10% fetal bovine serum (FBS: BioWhittaker Co. Ltd.) under 5% CO2 atmosphere at 37° C. […]
# After centrifugation, sedimented DE52 gels were washed several times with the same buffer, and 60 μL of 0.2M Tris hydrochloride buffer solution (pH 6.8) containing 5% of 2-mercaptoethanol, 4% of SDS, […], 20% of glycerol and 0.01% of bromophenol blue was added, and heat-treated for 5 minutes at 95° C. […] Chemiluminescences were detected on X-ray film using ECL™ (Amersham Pharmacia Biotech Co. Ltd.). The density of the bands were analyzed according to NIH Image. […]
# The density of osteopontin protein measured with NIH Image Analysis for various concentration of pitavastatin calcium are shown in FIG. 1(a), and the density of osteopontin protein measured with NIH Image Analysis for various concentration of atorvastatin are shown in FIG. 1(b).
# [2] = tested on: aortic smooth muscle cells of rats; assay: Secretion of osteopontin protein from aortic smooth muscle cells of rats, with or without mevalonic acid (western blotting); assay type: cell-based, rat; conditions: FIG. 2(b)
# Protocol: (§1) The effect of mevalonic acid on the suppression with pitavastatin calcium for the expression of osteopontin mRNA and the secretion of osteopontin protein in aortic smooth muscle cells of rats were measured according to the method described below.
# (§2) Aortic smooth muscle cells of rats (5 to 10 passage culture) were seeded in a 6-well culture plate and the confluent cultures were attained by culturing in low glucose (1000 mg/L) DMEM with 10% FBS under 5% CO2 atmosphere at 37° C. Thereafter, the medium was replaced with the medium with pitavastatin calcium (8 μM) and/or mevalonic acid (100 μM), and the cells were cultured for another 48 hours. The medium was again replaced with 1.5 mL of FBS-free medium per well, and the cells were cultured further for 48 hours.
# At the same time, the conditioned medium was collected, osteopontin protein was absorbed on DE52, subjected to electrophoresis exactly as in Example 2, and the amount of the secreted osteopontin protein was analyzed by western blotting method.
# (§3) The above measurements were carried out in the three cases when pitavastatin calcium and mevalonic acid were not added, when only pitavastatin calcium was added, and when both pitavastatin calcium and mevalonic acid were added.
# [3] = tested on: aortic smooth muscle cells of rats; assay: Expression of osteopontin mRNA in aortic smooth muscle cells of rats, with or without mevalonic acid (northern blotting); assay type: cell-based, rat; conditions: FIG. 2(a)
# Protocol: as §1, §2
# After the cultivation, the cells adhered to the culture plate were homogenized together with ISOGEN, RNA were extracted exactly as in Example 1, and the amount of osteopontin mRNA was analyzed by northern blotting method.
# as §3
# [4] = tested on: osteopontin mRNA; assay: Expression of osteopontin mRNA in the kidney and blood vessels of STZ-induced diabetic rats and normal rats (Northern blotting); assay type: in vivo, rat; conditions: for Kidney OPNmRNA/18S / Aorta OPNmRNA/18S / Aorta % Inhibition / Kidney % Inhibition: oral 3 mg/kg once a day, 7 days; for Kidney OPNmRNA/18S / Aorta OPNmRNA/18S: mean ± standard deviation, 3 mg/kg
# Protocol: The effects of pitavastatin calcium on the expression of osteopontin mRNA in the kidney and blood vessels of STZ-induced diabetic rats were investigated according to the method described below.
# Namely, 35 mg per kg of body weight of STZ dissolved in the concentration of 50 mg/mL of physiological saline was injected into the tail vein of male Wistar rats (body weight: about 300 g), and the animals were orally administered 1 mL/kg of body weight of 0.5% carboxymethylcellulose solution containing the test drug (pitavastatin calcium) in the concentration of 3mg/mL with a gastric sonde. Thereafter the oral administration was performed once a day by same volume and at fixed time during the experiment. The same volume of only 0.5% carboxymethylcellulose was given by the forced oral administration for the control group. The venous blood was withdrawn from the tail vein on the second day of the experiment and the presence of 200 mg/dL or above of the blood sugar level was confirmed.
# 24 hours after 7 days administration, the blood was withdrawn under the ether anesthesia, and kidneys and thoracic aorta were isolated. The predetermined amount of the tissue piece in ISOGEN (Wako Pure Chemicals K.K.) was homogenized in a polytron homogenizer and the total RNA was extracted. The total RNA thus obtained was precipitated by using isopropanol. The precipitate was washed with 70% ice cold ethanol and stored at −80° C. in 70% ethanol.
# Osteopontin mRNA in the total RNA obtained was detected by the conventional Northern blotting method. That is to say that the total RNA precipitated with 70% ethanol was subjected to centrifugation at 15000 rpm, the precipitate was dried at room temperature after decanting the supernatant and dissolved in a small amount of TE buffer (10 mM Tris-HCl buffer-1 mM EDTA solution). 10 μL out of the solution thus obtained was diluted with 990 μL of TE buffer solution, and the amount of RNA was calculated by measuring the absorbance at 260 nm ultraviolet light of the solution. 40% solution of deionized glyoxal (3.5 μL), 0.1 M of NaHPO4 buffer solution (2.4 μL) and dimethylsulfoxide (11.8 μL) were added to the predetermined amount (10 or 20 μg) of the total RNA (final volume: 6 μL), heated at 50° C. for 1 hour and the total RNA was denatured. 6.3 μL of 10 mM sodium phosphate buffer solution (pH: 6.8) containing 50% glycerol and 0.4% bromophenol blue was added to the solution after the solution was cooled to the room temperature, and then RNA was subjected to electrophoresis using 1.5% agarose gel. RNA was blotted from agarose to nylon membrane in a conventional fashion by using 20×saline-sodium citrate (SSC). The blotted nylon membrane was washed with 2×SSC, and RNA was fixed on the nylon membrane by heating it to 80° C. in vacuo. DNA fragment encoding osteopontin was digested from pCRIIrOP vector with Eco R1 endonuclease and purified with Probe Quant™G-50 Micro Columns (Amersham Pharmacia Biotech Co. Ltd.). DNA fragment encoding Osteopontin thus obtained was hybridized for overnight together with the nylon membrane at 65° C. with Rediprime™ II (Amersham Pharmacia Biotech Co. Ltd.) radioactive probe labeled with ^32P radioisotope. Radioisotope level of the probe bound to the nylon membrane was detected on the X-ray film and the density of the bands were analyzed according to NIH Image. […] was used as the RNA internal standard and the amount of the expression was represented with the comparative intensities of the density of the bands. Osteopontin mRNA was similarly measured in the normal rat experiment.
# In Table 1, OPN mRNA/18S represents the ratio of the density of osteopontin mRNA to the density of […] based on the NIH Image Analysis and % inhibition represents that to the respective control groups. The values of OPNmRNA/18S are mean ± standard deviation.
# [5] = pitavastatin calcium 8 μM alone, 48 hours
# [6] = pitavastatin calcium 8 μM with addition of mevalonic acid 100 μM
# [7] = STZ-induced diabetic rats with drug administration, versus diabetic control
# [8] = healthy rats with drug administration, versus healthy control
# [9] = rats with drug administration, listed as Pitavastatin calcium
molecule,measurement,setting,value
CC(C)c1c(C(=O)Nc2ccccc2)c(-c2ccccc2)c(-c2ccc(F)cc2)n1CC[C@@H](O)C[C@@H](O)CC(=O)O [atorvastatin],Amount of the secretion of osteopontin protein into the conditioned medium,[1],inhibited with the statistical significance
"(+)-bis{(3R, 5S, 6E)-7-[2-cyclopropyl4-(4-fluorophenyl)-3-quinolyl]-3,5-dihydroxy-6-heptenoic acid}-calcium [pitavastatin calcium]",Secretion of osteopontin protein,[2]; [5],suppresses
same,Suppressive effect on the secretion of osteopontin protein,[2]; [6],disappear
same,Expression of osteopontin mRNA (ratio to 18S),[3]; [5],suppresses
same,Suppressive effect on the expression of osteopontin mRNA,[3]; [6],disappear
same,Amount of the secretion of osteopontin protein into the conditioned medium,[1],inhibited with the statistical significance
same,Kidney OPNmRNA/18S,"[4]; STZ-induced diabetic rats with drug administration, p = 0.016 vs control",1.933 ± 0.874
same,Kidney OPNmRNA/18S,"[4]; STZ-induced diabetic rats with drug administration, p = 0.016 vs control, listed as Pitavastatin calcium",1.933
same,Aorta OPNmRNA/18S,"[4]; STZ-induced diabetic rats with drug administration, p = 0.036 vs control",1.300
same,Aorta OPNmRNA/18S,"[4]; STZ-induced diabetic rats with drug administration, p = 0.036 vs control, listed as Pitavastatin calcium",1.300
same,Aorta % Inhibition,[4]; [7],59.4%
same,Kidney % Inhibition,[4]; [7],40.2%
same,Influence on the expression of osteopontin in the kidney and the aorta,[4]; healthy rats,did not influence
same,Aorta % Inhibition,[4]; [8],−1.4%
same,Kidney % Inhibition,[4]; [8],−24.1%
same,Aorta OPNmRNA/18S,[4]; rats with drug administration,2.433 ± 0.929
same,Kidney OPNmRNA/18S,[4]; rats with drug administration,1.667 ± 0.321
same,Aorta OPNmRNA/18S,[4]; [9],2.433
same,Kidney OPNmRNA/18S,[4]; [9],1.667
